Values quoted from earlier work as cited in PMC12281572.
Several values for one entry are separate records, joined by “and”; a condition that tells them apart may be missing. Identical values can stand only once.

Assay: FTIR, 4-fluorophenol as donor (the pK_BHX database, per the paper)
Conditions: CCl4; 25 C

| Structure (SMILES) | pK_BHX (log10 Kf of the 1:1 H-bond complex with 4-fluorophenol, by FTIR) |
| --- | --- |
| IC1CCCCC1 | -0.32 log units |
| O=S(Cc1ccccc1)Cc1ccccc1 | 2.43 log units |
| CO | 0.82 log units |
| COCCOC | 1.02 log units |
| CC(C)C(=O)N(C)C | 2.26 log units |
| CCN(CC)C(=O)Cl | 1.08 log units |
| CC(=Nc1ccc(Br)cc1)N(C)c1ccc(Br)cc1 | 1.19 log units |
| O=C1CCCCO1 | 1.57 log units |
| CN(C)C(=S)Cl | 0.5 log units |
| O=C(c1ccccc1)c1ccccc1 | 1.07 log units |
| CSc1ccccc1 | -0.32 log units and -0.48 log units |
| C1COCCOCCOCCO1 | 1.13 log units |
| Cc1ccc(N(C)C)cc1 | 0.69 log units |
| C(=Nc1ccccc1)c1ccccc1 | 0.87 log units |
| COc1ccc(Cl)cc1 | -0.25 log units |
| O=c1c2ccccc2oc2ccccc12 | 1.36 log units |
| CCOS(=O)OCC | 1.07 log units |
| CN(C)C=CC#N | 1.7 log units |
| FCCCF | -0.27 log units |

| Structure (SMILES) | pK_BHX (log10 Kf of the 1:1 H-bond complex with 4-fluorophenol, by FTIR) |
| --- | --- |
| CCN(C(=O)N(CC)c1ccccc1)c1ccccc1 | 2.16 log units |
| c1ccc2nc3ccccc3cc2c1 | 1.95 log units |
| CC(=O)N1CCCC1 | 2.61 log units |
| C1C2CC3CC1CC(C2)C31OC12C1CC3CC(C1)CC2C3 (stereo not drawn) | 1.44 log units |
| COc1ccc(C(C)=O)cc1 | 1.33 log units |
| COC(=O)N(C)C | 1.8 log units |
| CCCCN | 2.19 log units |
| c1ccc(CNCc2ccccc2)cc1 | 1.34 log units |
| c1cnoc1 | 0.81 log units |
| COC(OC)(OC)OC | 0.26 log units |
| C1CSC1 | 0.13 log units |
| c1ccc(Sc2ccccc2)cc1 | -0.51 log units and -0.93 log units |
| O=S(c1ccc(Cl)cc1)c1ccc(Cl)cc1 | 1.68 log units |
| Cc1ccc(N=CNc2ccc(C)cc2)cc1 | 2.22 log units |
| CC12CCC(CC1=N[N+](=O)[O-])C2(C)C (stereo not drawn) | 0.34 log units |
| Fc1nc(F)c(F)c(F)c1F | -0.49 log units |
| c1ccc(Cc2ccccc2)cc1 | -0.41 log units |
| CN(C)n1cccc1 | 0.23 log units |
| Cc1cc(C)ncn1 | 1.47 log units |

| Structure (SMILES) | pK_BHX (log10 Kf of the 1:1 H-bond complex with 4-fluorophenol, by FTIR) |
| --- | --- |
| CC(=O)n1ccnc1 | 1.86 log units |
| c1ccncc1 | 1.86 log units |
| CN1CC=CCC1 | 2.02 log units |
| CCN(C)Cc1cccc(F)c1 | 1.14 log units |
| CC(C)(C)[N+](=O)[O-] | 0.42 log units |
| c1ccc2c(c1)CCO2 | 0.21 log units |
| CCN1C(=O)C=CC1=O | 0.68 log units |
| CN1CCCCC1=O | 2.6 log units |
| Cc1ccc[n+]([O-])c1 | 2.92 log units |
| [O-][n+]1ccc(Cl)cc1 | 2.44 log units |
| Cc1cccc(CN)c1 | 1.97 log units |
| CC(=O)c1ccc2ccccc2c1 | 1.13 log units |
| O=S(c1ccccc1)c1ccccc1 | 2.04 log units |
| CCOC(=O)N(c1ccccc1)c1ccccc1 | 1.45 log units |
| Oc1ccc(F)cc1 | -0.12 log units |
| Cc1ccccc1C#N | 0.83 log units |
| CC(=Nc1ccc(Br)cc1)N(C)c1ccc(C)cc1 | 1.43 log units |
| CCOCCOCC | 1.09 log units |

Results, then the compound that gave them:

| pK_BHX (log10 Kf of the 1:1 H-bond complex with 4-fluorophenol, by FTIR) | Structure (SMILES) |
| --- | --- |
| 2.13 log units | CCN(CC)C(=O)C(C)(C)C |
| 1.88 log units | CN1CCN(C)CC1 |
| 1.13 log units | C1CCC2OC2C1 (stereo not drawn) |
| 1.95 log units | CCOC(=O)N(CC)CC |
| 2.26 log units | CN(C)C=NCC(C)(C)C |
| 1.47 log units | Cc1ccc(NC(=Nc2ccccc2)c2ccccc2)cc1 |
| 2.6 log units | CC(C)N=CN(C)C |
| 1.65 log units | CC(=Nc1ccccc1)N(C)c1ccccc1 |
| 1.29 log units | Cc1cnc(C)cn1 |
| 1.05 log units | CC(=Nc1cccc(Cl)c1)N(C)c1cccc(Cl)c1 |
| 1.3 log units | c1cocn1 |
| 0.78 log units | CC(=O)c1ccc(C(F)(F)F)cc1 |
| -0.02 log units | CSCc1ccccc1 |
| 1.15 log units | Cc1ccc(C(=S)N(C)C)cc1 |
| 2.36 log units | Cc1ccc(CN=CN(C)C)cc1 |
| 1.22 log units | CCCCS(=O)(=O)CCCC |
| 2.59 log units | CCCN=CN(C)C |
| 1.25 log units | CCc1ccc(C(C)=O)cc1 |
| -0.85 log units | CC(C)=C(C)C |
| 2.11 log units | CNc1ccccn1 |
| 1.88 log units | CN(C)CCCn1c2ccccc2c2ccccc21 |
| 1.52 log units | Cc1ccc(N=C(c2ccccc2)N(C)c2ccccc2)cc1 |

| pK_BHX (log10 Kf of the 1:1 H-bond complex with 4-fluorophenol, by FTIR) | Structure (SMILES) |
| --- | --- |
| 1.33 log units | CN(C)C(=S)c1ccc(N)cc1 |
| -0.1 log units | CC(C)S |
| 2.1 log units | CN(C)C(=O)C(C)(C)C |
| 1.36 log units | O=C(C1CC1)C1CC1 |
| 1.29 log units | CCN(CC)C(=S)N(C)C |
| 0.58 log units | COCOC |
| 1.08 log units | CC(C)(C)C(=O)C12CC3CC(CC(C3)C1)C2 |
| -0.34 log units | CCC(CC)N(C(C)C)C(C)C |
| 2.79 log units | CN1CCCN(C)C1=O |
| 0.31 log units | FC12CC3CC(CC(C3)C1)C2 |
| -0.23 log units | CC(C)(C)c1cc(C(C)(C)C)cc(C(C)(C)C)c1 |
| 0.1 log units | C=COCC |
| -0.67 log units | C=CCCCCC |
| -0.54 log units | CC(C)(C)c1cccc(C(C)(C)C)n1 |
| 1.3 log units | CC(=O)c1ccc(C23CC4CC(CC(C4)C2)C3)cc1 |
| -0.5 log units | c1ccsc1 |
| -0.22 log units | CSCSC |
| 1.24 log units | CC(=Nc1cccc(Cl)c1)N(C)c1ccccc1 |
| 1.56 log units | C#CCN |
| 1.21 log units | CSc1ccc(C(C)=O)cc1 |
| 1.74 log units | CN(C=O)c1ccccc1 |
